Results: ChEMBL document CHEMBL4689842, “EUbOPEN Chemogenomics Library wave 1” (2021)

What was measured:
Type in all cases: toxicity, cell-based
[1] = tested on: Fibroblast; assay: Incucyte cell viability with human fibroblast; conditions: 10 µM, compound concentration 10 uM
[2] = tested on: U2OS; assay: Incucyte cell viability with U2OS; conditions: human, 10 µM, compound concentration 10 uM
[3] = tested on: HEK-293T; assay: Incucyte cell viability with HEK293T; conditions: human, 10 µM, compound concentration 10 uM
[4] = 0 h, replicate number 2, timepoint 0 hours
[5] = 6 h, replicate number 1, timepoint 6 hours
[6] = 6 h, replicate number 2, timepoint 6 hours
[7] = 12 h, replicate number 1, timepoint 12 hours
[8] = 18 h, replicate number 1, timepoint 18 hours
[9] = 24 h, replicate number 1, timepoint 24 hours
[10] = 0 h, replicate number 1, timepoint 0 hours
Also: filed as whole numbers so only -1 and 0 and 1 occur.

Structure (SMILES)	Growth Rate [1, 4]	Growth Rate [1, 5]	Growth Rate [1, 6]	Growth Rate [1, 7]	Growth Rate [1, 8]	Growth Rate [1, 9]	Growth Rate [2, 10]	Growth Rate [2, 5]	Growth Rate [2, 7]	Growth Rate [2, 8]	Growth Rate [2, 9]	Growth Rate [3, 10]	Growth Rate [3, 4]	Growth Rate [3, 5]	Growth Rate [3, 7]	Growth Rate [3, 8]	Growth Rate [3, 9]	Growth Rate [1, 10]	Growth Rate [2, 6]	Growth Rate ([2]; 18 h, replicate number 2, timepoint 18 hours)
Cc1ccc2nc(CNCCCOc3ccccc3)cc(O)c2c1 [UCSF924]	1	0	1	0	0	0	0	0	0	0	0	0	1	0	0	0	0	–	–	–
CCC[C@H](Oc1cc(C)c(-n2cc(C(F)(F)F)cn2)c(C)c1)c1ccc(C(=O)NCCC(=O)O)cc1 [PF-06291874]	–	1	–	0	0	1	–	–	1	0	1	1	0	0	0	0	0	0	0	1
